Data reported in patent US12723096B2, “Regimens and methods of treating multiple sclerosis using ofatumumab” (Novartis AG, priority 2016, dated 2026).

What was measured:
patients with RMS = details: 2 Phase 3 trials; over 2 years; cited from earlier work
relapsing MS patients = details: Phase 2; cited from earlier work
peripheral B-cell = experiment: Phase I/II study of single low-dose SC ofatumumab in rheumatoid arthritis: peripheral B-cell depletion; format: in vivo, human; details: RA patients on stable MTX; single SC doses of 30, 60 or 100 mg
Description: (§1) Ofatumumab targets a novel epitope on the CD20 molecule distinct from rituximab (RTX), a chimeric anti-CD20 MAb. RTX studies have utilized high intravenous (IV) doses (two 1000 mg doses 14 days apart) leading to very rapid B cell lysis resulting in infusion reactions despite the use of IV corticosteroid (CS) premedication. The first study involving ofatumumab was a phase I/II study to investigate the use of a low dose subcutaneous (SC) formulation of ofatumumab in rheumatoid arthritis (RA), administered without CS, potentially providing more controlled B cell depletion than that seen in the RTX studies. The primary objective was to investigate the safety and tolerability of a single SC dose of ofatumumab in rheumatoid arthritis (RA) patients on background methotrexate (MTX). Secondary objectives included investigating the minimum dose to achieve target peripheral B-cell depletion, the pharmacodynamic dose-response curve and B-cell repletion profile. […] Single doses up to 60 mg were tolerated and may provide a method of achieving B-cell depletion without additional CS premedication. This study established that the duration of peripheral B cell depletion increases with dose of ofatumumab (ofatumumab), an anti-CD20 antibody.

circulating B-cell = details: iv 100, 300, 700 mg; each dose level; cited from earlier work
[1] = system: relapsing-remitting multiple sclerosis (RRMS); experiment: Study OMS112831/MIRROR, repeat-dose SC ofatumumab in RRMS: brain MRI lesions and relapses; format: in vivo, human; details: for reduction of mean cumulative number of new gadolinium-enhancing lesions vs placebo: p<0.001
Text: The primary endpoint was the cumulative number of new gadolinium-enhancing lesions during weeks 0-12 on brain magnetic resonance imaging (MRI). Other endpoints included • (i) the cumulative number of new Gd-enhancing lesions at other time points; • (ii) (ii) the total volume at weeks 12 and 24 of a) new Gd-enhancing lesions, b) new/newly enlarged T2 lesions, and c) T1 hypointense lesions; • (iii) the proportion of patients free from relapses; • (iv) Expanded Disability Status Scale (EDSS) scores; • (v) Multiple Sclerosis Functional Composite (MSFC) and their component scores; • (vi) Modified Fatigue Impact Scale (MFIS); and • (vii) Evaluation of the use of the initial conditioning ofatumumab dose.

patients with RRMS = details: iv 100, 300, 700 mg; each dose level, both treatment periods; cited from earlier work
CD19+ B cells = experiment: Study OMS112831/MIRROR: CD19 B-cell counts; format: in vivo, human
Description: (§2) In this study, called MIRROR (MRI study In RRMS: evaluating ofatumumab Regimen), patients received ofatumumab 3 mg, 30 mg, or 60 mg every 12 weeks (q12w), or ofatumumab 60 mg every 4 weeks (q4w). To evaluate whether tolerability to the higher ofatumumab doses (30 mg and 60 mg) could be improved by the administration of an initial, lower, conditioning dose of ofatumumab (theoretically leading to the gradual lysis of B cells and potentially reducing cytokine release reactions), patients in the 30 mg q12w, 60 mg q12w and 60 mg q4w dose groups were randomized (1:1) to receive either placebo or a conditioning dose of ofatumumab 3 mg at week 0.

[2] = Phase I/II study of single low-dose SC ofatumumab in rheumatoid arthritis: safety and tolerability; format: in vivo, human; details: RA patients; single doses up to 60 mg, without CS premedication
Description: as §1

[3] = oncology studies; Arzerra US prescribing information 2016; cited from earlier work
[4] = in vivo
Description: as §2

ocrelizumab
relapse rates vs interferon beta 1a (patients with RMS): significantly reduced | MRI-measured inflammatory activity (relapsing MS patients): marked reductions

ofatumumab
peripheral B-cell depletion (peripheral B-cell): profound and sustained peripheral B-cell depletion | circulating B-cell counts (circulating B-cell): profound reduction | MRI effect ([1]; 3 mg every 12 weeks): clear MRI effect | MRI efficacy ([1]; 30 mg every 12 weeks): very close to maximal MRI efficacy | added efficacy compared with 60 mg every 12 weeks ([1]; 60 mg every 4 weeks): didn't add any efficacy | reduction of cumulative new/newly enlarged T2 lesions vs placebo ([1]; weeks 0-12): 60-72% | patients who experienced a relapse ([1]; weeks 0-12, 17/164 patients): 10% | reduction of mean cumulative number of new gadolinium-enhancing lesions vs placebo ([1]; weeks 0-12): 65% | reduction of mean cumulative number of new gadolinium-enhancing lesions vs placebo ([1]; weeks 4-12, post hoc analysis, cumulative ofatumumab doses 2::30 mg): ≥ 90% | reduction in MRI lesion activity versus placebo (patients with RRMS): up to 96% | depletion of CD19 B-cells (CD19+ B cells; 3, 30, 60 mg q12w, 60 mg q4w SC): dose-dependently | B-cell repopulation once dosing ceased (CD19+ B cells; all treatments, over 60 weeks of follow up, compared to high-dose i.v. anti-CD20 antibodies): relatively rapid B-cell repopulation | B-cell repletion during the inter-dosing interval (CD19+ B cells; monthly dosing (60 mg q4 weeks)): no signs of B-cell repletion | tolerability of single SC dose [2]: tolerated | incidence of anti-drug antibodies (ADA) against ofatumumab [3]: < 1 % of patients | adverse events versus lower dose regimens of 3 or 30 mg q12 weeks [4]: more adverse events | injection-related reactions (most commonly reported AE) [4]: 52% | injection-related reactions mild/moderate in severity [4]: 97 % of the events | opportunistic infections [4]: no cases | overall safety and tolerability [4]: safe and well tolerated

rituximab
MRI-measured inflammatory activity (relapsing MS patients): marked reductions
